Source: ChEMBL document CHEMBL1143327, “Carbonic anhydrase inhibitors: inhibition studies of a coral secretory isoform with inorganic anions” (Bioorg Med Chem Lett, 2009)

Target: Carbonic anhydrase 4 (Homo sapiens, UniProt P22748)
Sequence (P22748 whole entry): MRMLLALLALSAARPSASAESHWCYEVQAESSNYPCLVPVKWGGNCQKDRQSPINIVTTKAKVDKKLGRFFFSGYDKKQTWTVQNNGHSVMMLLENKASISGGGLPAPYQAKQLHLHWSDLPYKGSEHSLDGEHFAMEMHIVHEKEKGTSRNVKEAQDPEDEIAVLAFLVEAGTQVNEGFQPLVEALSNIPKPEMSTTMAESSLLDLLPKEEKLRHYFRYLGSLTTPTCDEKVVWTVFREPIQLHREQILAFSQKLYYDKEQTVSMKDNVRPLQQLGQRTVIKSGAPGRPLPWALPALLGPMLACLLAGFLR

Row | SMILES | Ki [µM]
1 | OB(O)c1ccccc1 [PHENYLBORONIC ACID] | 820
2 | NS(=O)(=O)O [SULFAMATE] | 90
